Test results: patent US20140228715A1, “Method and Apparatus for Delivering a Substance” (The General Hospital Corporation, priority 2011, published 2014)

Assay: Franz diffusion cell permeability of GI tissue exposed to ultrasound, scintigraphy of tissue and receiver chamber
Settings: 1-MHz, 1.4 W/cm^2; 5 min ultrasound + 55 min passive diffusion vs 30 min + 30 min

inulin
transport into or across the tissue, effect of irradiation profile: the longer irradiation time was more effective
